{"source": "patent US20240158810A1", "about": "“COMPOSITIONS AND METHODS FOR AMELIORATING ANTERODORSAL THALAMUS HYPEREXCITABILITY” (The Broad Institute, Inc., priority 2021, published 2024)", "key": {"[1]": {"system": "PTCHD1 KD mice", "assay": "Contextual fear conditioning long-term memory recall test in PTCHD1 KD mice", "type": "in vivo, mouse", "details": "PTCHD1 KD mice with hM4Di in AD; low dose of C21 (0.6 mg kg^-1 IP) before CFC training", "excerpt": "(§1) The inventors hypothesized that the increased excitability of AD neurons in KD mice may prevent synaptic strengthening during CFC training, which is necessary for efficient encoding. Specifically, in control mice the excitability of AD neurons would increase during training, which leads to strengthening of the AD→RSC circuit, but in KD mice due to the increased excitability of AD neurons before training there will not be the important training-induced increase in excitability and corresponding synaptic strengthening. By recording from AD neurons before and after CFC training in control and KD groups, the inventors obtained experimental evidence to support this idea (FIG. 14G). Without intending to be bound by theory, these findings support a correlation between neuronal hyperexcitability and impairments in long-term potentiation (Speca et al., 2014: Gruter et al., 2015). The inventors next developed a dose-dependent chemogenetic approach to normalize the excitability of AD neurons in KD mice (FIG. 6D).\nChemogenetic and optogenetic experiments. For chemogenetic (i.e., hM4Di or hM3Dq) neuronal activity manipulation experiments, we used the second-generation agonist known as compound 21 (C21). […]\nContextual fear conditioning. […] Since optogenetic manipulations (i.e., optic fibers) interfered with automated motion detection, freezing behavior was manually quantified for all experiments."}, "[2]": {"system": "RSC cFos ensembles", "assay": "cFos activation in RSC during CFC training in PTCHD1 KD mice", "type": "in vivo, mouse", "details": "PTCHD1 KD mice with hM4Di in AD, low dose of C21 (0.6 mg kg^-1 IP)"}, "[3]": {"system": "AD neurons of PTCHD1 KD mice", "assay": "AD neuronal excitability rescue ex vivo in PTCHD1 KD mice (chemogenetic normalization)", "design": "species or system mouse", "details": "PTCHD1 KD mice with hM4Di in AD; low dose of C21 (0.6 mg kg^-1 IP), 1 hr before slice preparation", "excerpt": "as §1\n(§2) Chemogenetic and optogenetic experiments. For chemogenetic (i.e., hM4Di or hM3Dq) neuronal activity manipulation experiments, we used the second-generation agonist known as compound 21 (C21). This agonist was purchased in a water-soluble dihydrochloride form (Hello Bio). […]"}, "[4]": {"system": "AD neurons expressing inhibitory DREADDs hM4Di-mCherry", "assay": "C21-induced inhibition of hM4Di-expressing AD neuronal firing, ex vivo slice recording", "type": "cell-based, mouse", "details": "hM4Di-mCherry expressed in AD, 50 pA step current injection"}, "[5]": {"system": "AD→RSC circuit", "assay": "AMPA/NMDA ratio of the AD→RSC circuit after CFC training in PTCHD1 KD mice", "type": "in vivo, mouse", "details": "PTCHD1 KD mice with hM4Di in AD, low dose of C21 (0.6 mg kg^-1 IP)", "excerpt": "as §1, §2"}}, "data": [{"smiles": "Cl.Cl.c1ccc2c(c1)N=C(N1CCNCC1)c1ccccc1N2", "note": "[C21]", "values": [{"measurement": "LTM recall (CFC)", "setting": "[1]", "result": "rescued"}, {"measurement": "training-induced CFOS ensemble size in RSC", "setting": "[2]", "result": "rescued"}, {"measurement": "excitability of AD neurons", "setting": "[3]", "result": "returned to physiological levels"}, {"measurement": "AD neuronal firing", "setting": "[4]", "result": "reversibly decreased AD neuronal firing"}, {"measurement": "training-induced strengthening of the AD→RSC circuit (AMPA/NMDA ratio)", "setting": "[5]", "result": "rescued"}]}]}
